Data on 3 compounds can be found in patent US6699676B1, “Uses of ouabain and ouabain-like molecules in apoptosis related pathologies” (Corporation du Centre de Recherche du Centre, Hospitalier …, priority 1999, dated 2004).

Assay [1] concerns caspase-3. Put plainly: Caspase-3 activity in treated VSMC-E1A. The class given is cell-based, rat. How it is done: (§1) FIG. 5. Effect of ouabain on caspase-3 activity in VSMC-E1A (A) and Jurkat cells (B). VSMC-E1A and Jurkat cells were pretreated with 1 mM ouabain for 1 and 2 hours, respectively, and the additions indicated below the bars were delivered in media with 10% calf serum and with the baseline (137/5) or inverse (14/128) [Na^+]o/[K^+]o ratio for 6 (VSMC-E1A) or 3 hours (Jurkat cells). In experiments with VSMC-E1A, calf serum (CS) was omitted where indicated (−). Abbreviations: staur.—staurosporine (0.25 μM), ok.ac.—okadaic acid (1 μM), mann.—mannitol (350 mM); Fas-L—Fas ligand (100 ng/ml). Mean values±S.E. obtained in experiments performed in quadruplicate (A) or triplicate (B) are given. ★p<0.001 compared to ouabain-untreated cells.
(§2) Caspase activity. VSMC-E1A seeded in 20 cm^2 flasks and treated as indicated in FIG. 5 were scratched, transferred to centrifuge tubes, washed twice with PBS and lysed in 0.5 ml of buffer A contaming 50 mM tris-HCl (pH 7.4), 5 mM MgCl2, 1 mM EGTA and 0.1% CHAPS. Then, 50-100 μl of cell lysate was mixed with 600 μl of buffer A containing 1 mM dithiothreitol, 40 μM YVAD-AMC or DEVD-AMC with or without 1 μM of caspase-1 and capspase-3 inhibitors (Ac-YVAD-CHO and Ac-DEVD-CHO, respectively), incubated for 2 hours at 37° C. and diluted 15-fold with 80 mM glycine-NaOH buffer (pH 10). Fluorescence of the samples was measured at ex=365 run and em=465 run and calibrated with AMC in the range of 10 to 100 nM. To measure caspase activity in control and ouabain-treated Jurkat cells, 5 ml of suspension containing ˜2×10^7 cells was transferred onto ice and sedimented. The pellet of cells was washed and treated with 0.3 ml of medium A in the same way as VSMC. Protein content was estimated by Bradford methods.

The next assay has as its system VSMC-E1A. In words: Chromatin cleavage assay in VSMC-E1A. In kind it is cell-based, rat. How it is done: FIG. 2. Effect of ouabain on chromatin cleavage in VSMC-E1A. (A) Kinetics of the accumulation of chromatin fragments in control (curves 1, 3) and ouabain-treated (curves 2, 4) VSMC-E1A in the presence of 10% calf serum (CS, curves 1, 2) or in CS-free medium (curves 3, 4). Mean values ±S.E. obtained in experiments performed in quadruplicate are given. (B) Content of chromatin fragments in VSMC-E1A subjected to 6 hr of incubation in serum-supplied medium with or without 1 mM ouabain, 0.25 μM staurosporine, 1 μM okadaic acid and 350 mM mannitol. Mean values±S.E. obtained in 3 experiments performed in quadruplicate are given. ★, ★★ p<0.05 and 0.001 compared to ouabain-untreated cells. In both experiments, ouabain was added 1 hour before triggering of apoptosis.
Cells were incubated in K^+-containing medium consisting of 91 mM NaCl, 5 mM KCl, 0.9 mM NaH2PO4, 44 mM NaHCO3, 1.8 mM CaCl2, 0.8 mM MgCl2, 33 mM HEPES and 5 mM D-glucose (pH 7.4) (lines 1 and 2) or in K^+-depleted medium (equimolar substitution of KCl by NaCl, line 3) with or without 10% calf serum (CS) and 1 mM ouabain as indicated. In experiments with VSMC-MYC and VSMC-E1A, cells were preincubated for 1 hr with ouabain or with K^+-depleted medium in the presence of CS and then subjected to treatment with serum-free media. After 24 hours (VSMC) or 6 hours (VSMC-MYC and VSMC-E1A), the content of chromatin fragments was measured as described in Experimental Procedures. Mean values±S.E. obtained in 3 experiments performed in quadruplicate (VSMC) or triplicate (VSMC-MYC, VSMC-E1A) are given. ★, ★★ p<0.05 and 0.001 compared to the controls.
To estimate chromatin cleavage, cells were incubated for 1 hr in the presence of 10% calf serum (CS) in the control solution (DMEM, [Na^+]=137 mM; [K^+]=5 mM—line 1) or under equimolar substitution of NaCl by KCl ([Na^+]=14 mM; [K^+]=128 mM—line 2) with or without 1 mM ouabain and then for an additional 6 hours in the same media with or without CS. Intracellular Na^+ and K^+ content was measured as steady-state distribution of isotopes after 24 hours preincubation of cells in control Na^+-enriched solution containing 0.5 μCi/ml ^86Rb or 2 μCilml ^22Na, and additional 6 hours incubation in Na^+—(line 1) or K^+—(line 2) enriched medium, containing 10% CS and isotopes with the same specific activity with or without 1 mM ouabain. For more details see Experimental Procedures. Mean values±S.E. obtained in 3 experiments performed in triplicate (ion content) or quadruplicate (chromatin cleavage) are given. ★p<0.001 compared to ouabain-untreated cells.
VSMC-E1A cells were pretreated with compounds indicated in the left column during 2 hours in DMEM containing 10% calf serum and then additional 3 hours in the absence or presence of calf serum. The increment of the content of chromatin fragments triggered by serum withdrawal in control cells was taken as 100%. Means+S.E. from experiments performed with quadruplicate are given. ★p<0.001 as compared to control.
Cells. VSMC were obtained by explant methods from aortas of 10- to 13-week-old male rats as described previously (17), cultured in DMEM with 10% calf serum, 100 U/ml penicillin, 100 µg/ml streptomycin and used between 10 to 16 passages. Cells transfected with c-myc (VSMC-MYC) and E1A-adenovirus (VSMC-E1A) were obtained in accordance with a previously-described protocol (18,19) and were cultured in the same medium with the addition of 500 µg/ml genticin. Jurkat cells were obtained from the American Type Culture Collection and cultured in RPMI 1640 medium supplied with 10% calf serum, antibiotics, sodium pyruvate, glutamate and β-mercaptoethanol.
Chromatin cleavage assay. Chromatin cleavage in VSMC was estimated by a technique described previously in detail (10). Briefly, VSMC grown in 24-well dishes were labeled for 24 hours in serum-supplied DMEM with [^3H]-thymidine (1 μCi/ml), washed with 2×2 ml of DMEM and incubated in serum-supplied DMEM. […]

Assay [2] has as its system caspase-3. In words: Caspase-3 activity in treated Jurkat cells. The class given is cell-based, human. The note with it: for increase of caspase-3 activity: 3 hours, Fas ligand 100 ng/ml, staurosporine 0.25 μM, mannitol 350 mM. How it is done: as §1, §2

Each structure is given as a SMILES string.

Take `CN[C@@H]1C[C@H]2O[C@@](C)([C@@H]1OC)n1c3ccccc3c3c4c(c5c6ccccc6n2c5c31)C(=O)NC4` [staurosporine]: the “increase of caspase-3 activity” value is recorded as 8 fold in the assay with caspase-3 [1] (6 hours, staurosporine 0.25 μM, okadaic acid 1 μM) and roughly 20 fold with caspase-3 [2]. Besides, the “content of chromatin fragments” value in the assay with VSMC-E1A (VSMC-E1A, 6 hr, serum-supplied medium, 0.25 μM staurosporine, 1 μM okadaic acid) was determined as 30.1±4.7%.

As for `OC[C@@H](O)[C@@H](O)[C@H](O)[C@H](O)CO` [mannitol], the “caspase-3 activity under mannitol-induced cell shrinkage” value in the assay with caspase-3 [1] (350 mM mannitol, 6 hours) was “insensitive to mannitol-induced cell shrinkage”. In the assay with VSMC-E1A (control and ouabain-treated VSMC-E1A, 350 mM mannitol, 6 hr), the “chromatin cleavage under hyperosmotic shrinkage” value was “insensitive to hyperosmotic shrinkage”. For the same compound, the “increase of caspase-3 activity” value in the assay on caspase-3 [2] is roughly 10 fold.

Turning to `C[C@@H]1O[C@@H](O[C@H]2C[C@@H](O)[C@]3(CO)[C@H]4[C@H](O)C[C@]5(C)[C@@H](C6=CC(=O)OC6)CC[C@]5(O)[C@@H]4CC[C@]3(O)C2)[C@H](O)[C@H](O)[C@H]1O` [Ouabain, 1β,3β,5,11α,14,19-hexahydroxycard 20 [22]-enolide 3-[6-deoxy-α-L-mannopyrano-sidel]], the “increment of caspase-3 activity under induction of apoptosis” value with caspase-3 [1] (1 mM ouabain, control medium) is given as “abolished the increment of caspase-3 activity”. Further, in the assay with caspase-3 [1] (ouabain, K+-enriched, Na+-depleted medium ([Na+]o/[K+]o=14/128)), the “caspase-3 activity in apoptosis triggered by okadaic acid” value is “did not observe any effect”. The “baseline activity of caspase-3” value in the assay with caspase-3 [1] (pretreatment 1 hour with 1 mM ouabain (from 560±41)) was 101±39 pmol (mg prot)^−1 hr^−1. In the assay with VSMC-E1A (VSMC-E1A, 1 mM ouabain, FIG. 2b), the “apoptosis triggered by staurosporine and okadaic acid” value is given as “blocked”. Moreover, the “Increment of chromatin fragments triggered by serum withdrawal(%)” value in the assay on VSMC-E1A (VSMC-E1A, 1 mM, pretreated 2 hours then 3 hours with or without calf serum, control increment taken as 100%) was 21 ± 3 %. Moreover, the “Chromatin fragments (%)” value stood at 1.5 ± 0.3 % in the assay on VSMC-E1A (VSMC-E1A, 10% CS, 1 mM ouabain, 1 hr preincubation, 6 hours); 5.7 ± 0.6 % with VSMC-E1A (VSMC-E1A, CS-free, 1 mM ouabain, 1 hr preincubation, 6 hours); 5.0% in the assay with VSMC-E1A (ouabain-treated VSMC-E1A, 1 mM, 10% CS, medium [Na+]o=14, [K+]o=128 mM, 1 hr + 6 hours); 1.9% in the assay with VSMC-E1A (ouabain-treated VSMC-E1A, 1 mM, 10% CS, medium [Na+]o=137, [K+]o=5 mM, 1 hr + 6 hours); 32.0% in the assay on VSMC-E1A (ouabain-treated VSMC-E1A, 1 mM, CS-free, medium [Na+]o=14, [K+]o=128 mM, 1 hr + 6 hours); 6.3% in the assay on VSMC-E1A (ouabain-treated VSMC-E1A, 1 mM, CS-free, medium [Na+]o=137, [K+]o=5 mM, 1 hr + 6 hours). In addition, the “baseline and serum withdrawal-induced chromatin cleavage” value in the assay on VSMC-E1A (VSMC-E1A, ouabain added 1 hour before, FIG. 2a) is listed as “blocked baseline as well as serum withdrawal-induced chromatin cleavage”. The “increment of caspase-3 activity triggered by Fas ligand, staurosporine and hyperosmotic shrinkage” value with caspase-3 [2] (ouabain) is “Neither ouabain nor equimolar substitution of Na^+ by K^+ in the incubation medium affected the increment of caspase-3 activity”. For the same compound, the “baseline caspase-3 activity” value in the assay with caspase-3 [2] (pretreatment 2 hours with 1 mM ouabain (from 296±38)) is recorded as 497±67 pmol (mg prot)^−1 hr^−1.
